The values below come from US11685746B2, “Heteroaryl compounds for treating Huntington's disease” (PTC THERAPEUTICS, INC., priority 2018, dated 2023).

As usually defined, the IC50 is the concentration that inhibits the measured activity by half. Read a high IC50 as lower potency.

The test system of the experiment is Endogenous Huntingtin Protein. Put plainly: Endogenous Huntingtin Protein Assay (MSD plates, MW1 or MAB2166 capture antibody). Type of experiment: cell-based. The settings on record: Table 1. A digest of the protocol:
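Endogenous huntingtin was captured overnight at 4° C on wells coated with 1 μg/mL MW1 (polyglutamine-specific) or MAB2166. Detection used rabbit #5656S and then goat anti-rabbit SULFO-TAG, both at 0.25 μg/mL and 1 h at room temperature. Plates were imaged on the MSD system in read buffer T.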
In turn, `CN(c1nc2sc(-c3ccc(-c4cn[nH]c4)cn3)nc2s1)[C@@H]1C[C@H]2CC[C@@H](C1)N2` [Compound 174, N-[(1R,3s,5S)-8-azabicyclo[3.2.1]octan-3-yl]-N-methyl-5-[5-(1H-pyrazol-4-yl)pyridin-2-yl][1,3]thiazolo[5,4-d][1,3]thiazol-2-amine] registered an IC50 not above 100 nM.
Compound `CN(c1nc2sc(-c3ncc(Br)cn3)nc2s1)[C@@H]1C[C@H]2CC[C@@H](C1)N2` [Compound 186, N-[(1R,3s,5S)-8-azabicyclo[3.2.1]octan-3-yl]-5-(5-bromopyrimidin-2-yl)-N-methyl[1,3]thiazolo[5,4-d][1,3]thiazol-2-amine] gave an IC50 not above 100 nM.
For the compound `CN(c1nc2sc(-c3cnc(-c4cnn(C)c4)cn3)nc2s1)C1CC(C)(C)NC(C)(C)C1` [Compound 94, N-methyl-5-[5-(1-methyl-1H-pyrazol-4-yl)pyrazin-2-yl]-N-(2,2,6,6-tetramethylpiperidin-4-yl)[1,3]thiazolo[5,4-d][1,3]thiazol-2-amine], the IC50 is not above 100 nM.
The result for `Cc1cc(-c2nc3sc(C4CCNCC4)nc3s2)cc2cn(C)nc12` [Compound 16, 2,7-dimethyl-5-[5-(piperidin-4-yl)[1,3]thiazolo[5,4-d][1,3]thiazol-2-yl]-2H-indazole] reads not above 100 nM; that for `CN(c1nc2sc(-c3ncc(-c4cn[nH]c4)nn3)nc2s1)[C@H]1C[C@]2(C)CC[C@](C)(C1)N2` [Compound 79, N-[(1R,3s,5S)-1,5-dimethyl-8-azabicyclo[3.2.1]octan-3-yl]-N-methyl-5-[6-(1H-pyrazol-4-yl)-1,2,4-triazin-3-yl][1,3]thiazolo[5,4-d][1,3]thiazol-2-amine], not above 100 nM.
Compound `CN(c1nc2sc(-n3ccc(-c4cn[nH]c4)cc3=O)nc2s1)[C@H]1CCCNC1` [Compound 169, 1-(5-{methyl[(3S)-piperidin-3-yl]amino}[1,3]thiazolo[5,4-d][1,3]thiazol-2-yl)-4-(1H-pyrazol-4-yl)pyridin-2(1H)-one] had an IC50 not above 100 nM.
Compound `CN(c1nc2sc(-n3ccc(-c4cn[nH]c4)cc3=O)nc2s1)[C@@H]1C[C@H]2CC[C@@H](C1)N2` [Compound 195, 1-(5-{[(1R,3s,5S)-8-azabicyclo[3.2.1]octan-3-yl](methyl)amino}[1,3]thiazolo[5,4-d][1,3]thiazol-2-yl)-4-(1H-pyrazol-4-yl)pyridin-2(1H)-one] registered an IC50 not above 100 nM.
The result for `CN(c1nc2sc(-c3ncc(-n4ccnc4)cc3O)nc2s1)C1CCNCC1` [Compound 60, 5-(1H-imidazol-1-yl)-2-{5-[methyl(piperidin-4-yl)amino][1,3]thiazolo[5,4-d][1,3]thiazol-2-yl}pyridin-3-ol] reads 1000 to 3000 nM.
The compound `CN(c1nc2sc(-c3cnc(Br)n4ccnc34)nc2s1)C1CCNCC1` [Compound 116, 5-(5-bromoimidazo[1,2-c]pyrimidin-8-yl)-N-methyl-N-(piperidin-4-yl)[1,3]thiazolo[5,4-d][1,3]thiazol-2-amine] showed an IC50 of 500 to 1000 nM.
As for `CN(c1nc2sc(-c3ncc(-c4cn[nH]c4F)cc3O)nc2s1)C1CCNCC1` [Compound 53, 5-(5-fluoro-1H-pyrazol-4-yl)-2-{5-[methyl(piperidin-4-yl)amino][1,3]thiazolo[5,4-d][1,3]thiazol-2-yl}pyridin-3-ol], the IC50 is not above 100 nM.
The same measure for `Cc1cn2cc(-c3nc4sc(C5=CCNCC5)nc4s3)nc2c(C)n1` [Compound 41, 6,8-dimethyl-2-[5-(1,2,3,6-tetrahydropyridin-4-yl)[1,3]thiazolo[5,4-d][1,3]thiazol-2-yl]imidazo[1,2-a]pyrazine]: 100 to 500 nM; for `Cn1ccc(-c2ccc(-c3nc4sc(OC5CC(C)(C)NC(C)(C)C5)nc4s3)c(O)c2)cc1=O` [Compound 38, 4-(3-hydroxy-4-{5-[(2,2,6,6-tetramethylpiperidin-4-yl)oxy][1,3]thiazolo[5,4-d][1,3]thiazol-2-yl}phenyl)-1-methylpyridin-2(1H)-one]: 100 to 500 nM; for `C[C@H]1C[C@H](Oc2nc3sc(-c4ncc(-c5cn[nH]c5)c5cc[nH]c45)nc3s2)CCN1C` [Compound 84, 7-(5-{[(2S,4R)-1,2-dimethylpiperidin-4-yl]oxy}[1,3]thiazolo[5,4-d][1,3]thiazol-2-yl)-4-(1H-pyrazol-4-yl)-1H-pyrrolo[2,3-c]pyridine]: not above 100 nM.
Compound `CN(c1nc2sc(-c3ncc(-c4cn[nH]c4)cn3)nc2s1)[C@H]1CCCNC1` [Compound 161, N-methyl-N-[(3S)-piperidin-3-yl]-5-[5-(1H-pyrazol-4-yl)pyrimidin-2-yl][1,3]thiazolo[5,4-d][1,3]thiazol-2-amine] came in with an IC50 of 100 to 500 nM.
The same measure for `Cn1cc2cc(-c3nn4cc(C5CCNCC5)nc4s3)cc(F)c2n1` [Compound 28, 7-fluoro-2-methyl-5-[6-(piperidin-4-yl)imidazo[2,1-b][1,3,4]thiadiazol-2-yl]-2H-indazole]: not above 100 nM; for `CN(c1nc2sc(-c3ccc(-c4cn[nH]c4)cc3O)nc2s1)[C@H]1CCN[C@@H](CO)C1` [Compound 202, 2-(5-{[(2R,4S)-2-(hydroxymethyl)piperidin-4-yl](methyl)amino}[1,3]thiazolo[5,4-d][1,3]thiazol-2-yl)-5-(1H-pyrazol-4-yl)phenol]: not above 100 nM.
In turn, `Cc1cnn(-c2cnc(-c3nc4sc(N(C)C5CCNCC5)nc4s3)c(O)c2)c1` [Compound 63, 5-(4-methylpyrazol-1-yl)-2-[5-[methyl(4-piperidyl)amino]thiazolo[5,4-d]thiazol-2-yl]pyridin-3-ol] showed an IC50 of 3000 to 9000 nM.
Turning to `Cc1cc(-c2cn3cc(C4CCNCC4)nc3s2)cc2cn(C)nc12` [Compound 2, 2,7-dimethyl-5-[6-(piperidin-4-yl)imidazo[2,1-b][1,3]thiazol-2-yl]-2H-indazole], the IC50 is not above 100 nM.
The compound `CCN1CCC(N(C)c2nc3sc(-c4ccc(-c5cnn(C)c5)cc4O)nc3s2)CC1` [Compound 59, 2-{5-[(1-ethylpiperidin-4-yl)(methyl)amino][1,3]thiazolo[5,4-d][1,3]thiazol-2-yl}-5-(1-methyl-1H-pyrazol-4-yl)phenol] had an IC50 not above 100 nM.
The result for `CC1CC(N(C)c2nc3sc(-n4ccc(-c5cn[nH]c5)cc4=O)nc3s2)CCN1C` (stereo not drawn) [Compound 180, 1-{5-[(1,2-dimethylpiperidin-4-yl)(methyl)amino][1,3]thiazolo[5,4-d][1,3]thiazol-2-yl}-4-(1H-pyrazol-4-yl)pyridin-2(1H)-one] reads not above 100 nM; that for `C[C@H]1C[C@@H](N(C)c2nc3sc(-c4ncc(-c5cn[nH]c5)c5cc[nH]c45)nc3s2)CCN1` [Compound 98, N-methyl-N-[(2S,4S)-2-methylpiperidin-4-yl]-5-[4-(1H-pyrazol-4-yl)-1H-pyrrolo[2,3-c]pyridin-7-yl][1,3]thiazolo[5,4-d][1,3]thiazol-2-amine], not above 100 nM.
Turning to `CN(c1nc2sc(-c3ncc(-c4cn[nH]c4)cc3O)nc2s1)C1CCN(C2CC2)CC1` [Compound 204, 2-{5-[(1-cyclopropylpiperidin-4-yl)(methyl)amino][1,3]thiazolo[5,4-d][1,3]thiazol-2-yl}-5-(1H-pyrazol-4-yl)pyridin-3-ol], the IC50 lay within 100 to 500 nM.
With `CC1CC(N(C)c2nc3sc(-c4ncc(-c5cn[nH]c5)c5cc[nH]c45)nc3s2)CCN1C` (stereo not drawn) [Compound 152, N-(1,2-dimethylpiperidin-4-yl)-N-methyl-5-[4-(1H-pyrazol-4-yl)-1H-pyrrolo[2,3-c]pyridin-7-yl][1,3]thiazolo[5,4-d][1,3]thiazol-2-amine], the IC50 is not above 100 nM.
The result for `CN(c1nc2sc(-n3ccc(-n4cc(F)cn4)cc3=O)nc2s1)[C@@H]1C[C@H]2CC[C@@H](C1)N2` [Compound 149, 1-(5-{[(1R,3s,5S)-8-azabicyclo[3.2.1]octan-3-yl](methyl)amino}[1,3]thiazolo[5,4-d][1,3]thiazol-2-yl)-4-(4-fluoro-1H-pyrazol-1-yl)pyridin-2(1H)-one] reads not above 100 nM; that for `CC1CC(N(C)c2nc3sc(-c4ccc(-c5cn[nH]c5)nc4)nc3s2)CCN1C` (stereo not drawn) [Compound 127, N-(1,2-dimethylpiperidin-4-yl)-N-methyl-5-[6-(1H-pyrazol-4-yl)pyridin-3-yl][1,3]thiazolo[5,4-d][1,3]thiazol-2-amine], 1000 to 3000 nM; that for `C[C@@H]1C[C@@H](Oc2nc3sc(-c4ncc(-c5cn[nH]c5)c5nc[nH]c45)nc3s2)CCN1` [Compound 83, 4-(5-{[(2R,4S)-2-methylpiperidin-4-yl]oxy}[1,3]thiazolo[5,4-d][1,3]thiazol-2-yl)-7-(1H-pyrazol-4-yl)-3H-imidazo[4,5-c]pyridine], not above 100 nM.
As to `[2H]C([2H])([2H])n1cc(-c2cnc(-c3nc4sc(N(C)C5CC(C)(C)NC(C)(C)C5)nc4s3)c(O)c2)cn1` [Compound 49, 5-[1-(^2H3)methyl-1H-pyrazol-4-yl]-2-{5-[methyl(2,2,6,6-tetramethylpiperidin-4-yl)amino][1,3]thiazolo[5,4-d][1,3]thiazol-2-yl}pyridin-3-ol], the IC50 was not above 100 nM.
The result for `C[C@H]1C[C@H](Oc2nc3sc(-c4ncc(-c5nnn(C)n5)c5cc[nH]c45)nc3s2)CCN1` [Compound 81, 7-(5-{[(2S,4R)-2-methylpiperidin-4-yl]oxy}[1,3]thiazolo[5,4-d][1,3]thiazol-2-yl)-4-(2-methyl-2H-tetrazol-5-yl)-1H-pyrrolo[2,3-c]pyridine] reads not above 100 nM.
The compound `Cc1cn2cc(-c3nc4sc(C5CCNCC5)nc4s3)nc2c(C)n1` [Compound 44, 6,8-dimethyl-2-[5-(piperidin-4-yl)[1,3]thiazolo[5,4-d][1,3]thiazol-2-yl]imidazo[1,2-a]pyrazine] had an IC50 of 1000 to 3000 nM.
The compound `COc1cc(-c2cnc(-c3nc4sc(N(C)[C@H]5C[C@]6(C)CC[C@](C)(C5)N6)nc4s3)cn2)ncn1` [Compound 65, N-[(1R,3s,5S)-1,5-dimethyl-8-azabicyclo[3.2.1]octan-3-yl]-5-[5-(6-methoxypyrimidin-4-yl)pyrazin-2-yl]-N-methyl[1,3]thiazolo[5,4-d][1,3]thiazol-2-amine] displayed an IC50 of 100 to 500 nM.
